One substance from patent US12403184B2, “Compositions and methods for treating neurodegenerative disroders” (priority 2018, dated 2025) can be followed below.

Where no end group is shown, it is not given here.

One data set relates to HdhQ111 cells. Put plainly: Mitochondrial morphology (anti-Tom20 staining) in striatal cells. The conditions noted are these: 1 μM/day for 4 days, relative to TAT. It is filed as cell-based, mouse. On the procedure: Mouse striatal cell lines HdhQ7 and Q111 cells are immortalized from knock-in mice carrying 7 and 111 CAG repeats, respectively, in the mouse htt gene. HdhQ7 and HdhQ111 purchased from CHDI Foundation were cultured in DMEM supplemented with 10% (v/v) heat-inactivated FBS, 1% (v/v) penicillin/streptomycin, and 400 μg/ml G418 at 33° C. with 5% CO2. Cells within 14 passages were used in all experiments.
Cells grown on coverslips were fixed with 4% paraformaldehyde for 20 mins at r.t., permeabilized with 0.1% Triton X-100 in PBS and blocked with 2% normal goat serum. The cells were then incubated with primary antibody (overnight, at 4° C.) followed by Alexa Fluor 568 or 488 secondary antibody (2 h, r.t.). After staining with Nuclei with Hoechst dye (1:10,000 dilution), the cells were mounted onto slides. The cells were imaged by Fluoview FV1000 microscopy (Olympus).

The next data set concerns wildtype mice. Put plainly: Tolerability of DA1 treatment in wildtype mice. Type of data set: in vivo, mouse. On the procedure:
Systemic peptide treatment in HD mice. All randomization and peptide treatments were prepared by an experimenter not associated with behavioral and neuropathology analysis. […] […] The pump was replaced once every month.
The body weight and survival rate of HD mice and wild-type littermates were recorded throughout the study period.

Data set [1] has as its system neurons derived from HD patients. The data set can be described thus: mitoROS (mitoSOX probe) in neurons derived from iPS cells. Type of data set: cell-based, human. On the procedure:
iPS cells from a normal subject and a HD patient (carrying 41 CAG repeats) were differentiated into neurons using the protocol from our previous studies. Briefly, the iPS cells were plated onto 6-well plates precoated with 2.5% Matrigel and allowed to reach 90% confluence in feeder-free medium. For the first 10 days, the cells were treated with SB431542 (10 μM; Tocris Bioscience) and Noggin (100 ng/ml) in Neural Media (NM) containing Neurobasal and DMEM (1:1), B-27 supplement minus vitamin A (50×, Invitrogen), N2 supplement (100×, Invitrogen), GlutaMax (Invitrogen, 100×), FGF2 ([…]) and EGF ([…]), and 100 units/ml penicillin and 100 μg/ml streptomycin). For the next 10 days, the cells were treated with human recombinant Sonic hedgehog (SHH, 200 ng/ml), DKK1 (100 ng/ml) and BDNF (20 ng/ml), and 10 μM Y27632 (Sigma) in neuronal differentiation medium containing Neurobasal and DMEM (1:3), B27, N2, GlutaMax, and PS. Cells were then switched to treatment with BDNF (20 ng/ml), ascorbic acid (200 μM, Sigma-Aldrich), cAMP (0.5 mM, Sigma-Aldrich), and Y27632 (10 μM) in neuronal differentiation medium. All growth factors were purchased from PeproTech (Rocky Hill, NJ, USA). […]
To examine mitochondrial superoxide production, the cells were stained with MitoSOX (Invitrogen, 5 μM for 10 min) at 37° C. […] At least 150 cells/group were counted and quantitated.

A further data set deals with T1, GST-Drp1 and ATAD3A-Flag (Homo sapiens, UniProt Q9NVI7).
T1 construct: Abnova for GST-Drp1 L1170 (TNT kit); no catalogue number printed for GST-Drp1; host or cells: cell-free coupled transcription/translation (ATAD3A-Flag); GST-Drp1 purchased
T1 sequence (Q9NVI7 1-586): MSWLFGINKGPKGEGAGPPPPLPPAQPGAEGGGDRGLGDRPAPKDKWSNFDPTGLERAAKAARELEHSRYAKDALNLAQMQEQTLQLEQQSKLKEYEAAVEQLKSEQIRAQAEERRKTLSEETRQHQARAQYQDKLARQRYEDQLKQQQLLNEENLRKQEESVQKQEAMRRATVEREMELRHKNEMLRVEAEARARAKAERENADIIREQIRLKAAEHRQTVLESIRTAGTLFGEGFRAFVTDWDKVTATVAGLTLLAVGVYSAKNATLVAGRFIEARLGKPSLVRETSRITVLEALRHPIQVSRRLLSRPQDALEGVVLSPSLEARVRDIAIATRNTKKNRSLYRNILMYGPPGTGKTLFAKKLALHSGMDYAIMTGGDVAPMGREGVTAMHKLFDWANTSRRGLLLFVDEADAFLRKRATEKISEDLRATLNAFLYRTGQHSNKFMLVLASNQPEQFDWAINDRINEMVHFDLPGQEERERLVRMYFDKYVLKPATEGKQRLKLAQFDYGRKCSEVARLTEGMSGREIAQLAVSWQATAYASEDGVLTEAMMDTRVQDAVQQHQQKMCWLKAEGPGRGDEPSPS
Put plainly: GST pulldown assay, in vitro binding of GST-Drp1 and ATAD3A-Flag. The conditions noted are these: GST pull down, peptide 60 μM. The source says:
Using pcDNA3.1 (+)-ATAD3A-Flag plasmid as template, ATAD3A-Flag protein was synthesized by TNT® Quick Coupled Transcription/Translation System (Promega, Cat #L1170) followed by protein purification with Flag-peptide (Sigma, F3290). The expression of ATAD3A protein was confirmed by western blot analysis with both anti-ATAD3A and anti-Flag antibodies. This approach provides convenient single-tube, coupled transcription/translation reactions for eukaryotic cell-free protein expression and has been used to detect direct protein-protein interaction.
GST-Drp1 or GST control protein were incubated with Glutathione-beads in TBST buffer at r.t. After 1 h of incubation, ATAD3A-Flag protein was added, and thoroughly mixed in vibrating mixer for 30 mins at r.t., then transferred to 4° C. for overnight incubation Immunoprecipitates were then washed for three time and analyzed by SDS-PAGE.
To test the inhibitory function of DA1 peptide on in vitro binding between GST-Drp1 and ATAD3A-Flag, DA1 peptide or control peptide TAT (60 μM, each) was incubated with ATAD3A-Flag protein before mixing with GST-Drp1-glutathione beads complex.

Where [2] appears, read: 1 mg/kg/day for 30 days, Alzet mini pumps, vs saline.

On to “YGRKKRRQRRRGGEDKRKT-NH2 [DA1, YGRKKRRQRRR-GG-EDKRKT-NH2]”, for which the “number of cells with fragmented mitochondria” value with HdhQ111 cells is “reduced”. Further, the lifespan entry with wildtype mice was “no effect”. Further, in the data set on wildtype mice (setting [2]), the “relative weight (spleen/body weight)” value is “no effects” and the spleen morphology result was “no effects”. In addition, in the data set with wildtype mice (1 mg/kg/day subcutaneously), the “visible side effects in organs” value is “did not cause” and the weight loss result is given as “did not cause”. Moreover, the behavioral status entry in the data set on wildtype mice (sustained treatment) is “minor effects”. In addition, the mitoROS entry in data set [1] was “decreased”. Further, the “binding of GST-Drp1 and ATAD3A-Flag in vitro” value on GST-Drp1 and ATAD3A-Flag was “abolished”.
